From US8952024B2, “Herbicidal pyrimidone derivatives” (E I du Pont de Nemours and Company, priority 2009, dated 2015)

Legend:
Test in all cases: Test B pre-/postemergence plant response
Assay type in all cases: in vivo
[1] = system: goosegrass (Eleusine indica)
Outline: (§1)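 Visually scored on a 0 to 100 scale after 13 to 15 days in greenhouse versus controls. Treatments were preemergence on seeded loam/sand soil and postemergence on 1- to 4-leaf plants.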

[2] = system: lambsquarters (Chenopodium album)
Outline: as §1

[3] = system: soybean (Glycine max)
Outline: as §1

[4] = system: yellow nutsedge (Cyperus esculentus)
Outline: as §1

[5] = system: green foxtail (Setaria viridis)
Outline: as §1

[6] = system: wheat (Triticum aestivum)
Outline: as §1

[7] = system: large crabgrass (Digitaria sanguinalis)
Outline: as §1

[8] = system: velvetleaf (Abutilon theophrasti)
Outline: as §1

[9] = system: kochia (Kochia scoparia)
Outline: as §1

[10] = system: johnsongrass (Sorghum halepense)
Outline: as §1

[11] = system: bermudagrass (Cynodon dactylon); conditions: for Bermudagrass plant response rating (0 to 100 scale): 0 is no effect
Outline: as §1

[12] = system: woolly cupgrass (Eriochloa villosa)
Outline: as §1

[13] = system: ragweed (common ragweed, Ambrosia elatior)
Outline: as §1

[14] = 31 g ai/ha, postemergence, scale 0 to 100, 0 is no effect, 100 is complete control
[15] = 62 g ai/ha, postemergence, 0 is no effect, 100 is complete control, 13 to 15 days
[16] = 250 g ai/ha, Preemergence, 0 to 100 scale
[17] = Postemergence, 125 g ai/ha, visual rating after 13 to 15 days, scale 0 (no effect) to 100 (complete control)
[18] = Postemergence, 250 g ai/ha, scale 0 to 100 (0 no effect, 100 complete control)
[19] = Preemergence, 31 g ai/ha, scale 0 to 100 (0 no effect, 100 complete control)
[20] = Preemergence, 62 g ai/ha, scale 0 to 100 (0 no effect, 100 complete control)
[21] = Preemergence, 125 g ai/ha, scale 0 to 100, 0 no effect, 100 complete control
[22] = 62 g ai/ha, postemergence, 100 is complete control, 13 to 15 days
[23] = Postemergence, 31 g ai/ha, 0 to 100 scale (0 no effect, 100 complete control)
[24] = Postemergence, 125 g ai/ha, scale 0 to 100 (0 no effect, 100 complete control)
[25] = Postemergence, 250 g ai/ha, scale 0 to 100 (0 no effect, 100 complete control), 13 to 15 days

With `CCCCc1ncc(C(=O)C2=C(O)CCCC2=O)c(=O)n1-c1ccc(C)cc1` [Compound 67] the “Plant response rating, Goosegrass” value [1, 14] was 55, the “Goosegrass plant response rating (0 to 100 scale)” value [1, 15] was 55 and the “Plant response rating, Goosegrass” value [1, 16] was 98. The “Plant response rating, Goosegrass” value [1, 17] was 65, the “Plant response rating, Goosegrass” value [1, 18] was 80 and the “Plant response rating, Goosegrass” value [1, 19] was 85. For the same compound, the “Plant response rating, Goosegrass” value [1, 20] was 85, the “Plant response rating, Goosegrass” value [1, 21] was 90 and the “Plant response rating, Lambsquarters” value [2, 14] was 80. For the same compound, the “Lambsquarters plant response rating (0 to 100 scale)” value [2, 15] was 95, the “Plant response rating, Lambsquarters” value [2, 16] was 98 and the “Plant response rating, Lambsquarters” value [2, 17] was 98. For the same compound, the “Plant response rating, Lambsquarters” value [2, 18] was 100, the “Plant response rating, Lambsquarters” value [2, 19] was 98 and the “Plant response rating, Lambsquarters” value [2, 20] was 98. The “Plant response rating, Lambsquarters” value [2, 21] was 98, the “Plant response rating, Soybean” value [3, 14] was 80 and the “Soybean plant response rating (0 to 100 scale)” value [3, 15] was 90. For the same compound, the “Plant response rating, Soybean” value [3, 17] was 98, the “Plant response rating, Soybean” value [3, 18] was 98 and the “Plant response rating, Nutsedge, Yellow” value [4, 14] was 60. For the same compound, the “Nutsedge, Yellow plant response rating (0 to 100 scale)” value [4, 15] was 65, the “Plant response rating, Nutsedge, Yellow” value [4, 17] was 65 and the “Plant response rating, Nutsedge, Yellow” value [4, 18] was 70. The “Plant response rating, Nutsedge, Yellow” value [4, 19] was 0, the “Plant response rating, Nutsedge, Yellow” value [4, 20] was 65 and the “Plant response rating, Nutsedge, Yellow” value [4, 21] was 65. The “Plant response rating, Foxtail, Green” value [5, 14] was 10, the “Foxtail, Green plant response rating (0 to 100 scale)” value [5, 15] was 80 and the “Plant response rating, Foxtail, Green” value [5, 16] was 40. For the same compound, the “Plant response rating, Foxtail, Green” value [5, 17] was 80, the “Plant response rating, Foxtail, Green” value [5, 18] was 95 and the “Plant response rating, Foxtail, Green” value [5, 19] was 0. The “Plant response rating, Foxtail, Green” value [5, 20] was 30, the “Plant response rating, Wheat” value [6, 14] was 5 and the “Wheat plant response rating (0 to 100 scale)” value [6, 15] was 5. For the same compound, the “Plant response rating, Wheat” value [6, 17] was 25, the “Plant response rating, Wheat” value [6, 18] was 25 and the “Plant response rating, Wheat” value [6, 19] was 0. The “Plant response rating, Wheat” value [6, 20] was 0, the “Plant response rating, Wheat” value [6, 21] was 0 and the “Plant response rating, Crabgrass, Large” value [7, 14] was 75. For the same compound, the “Crabgrass, Large plant response rating (0 to 100 scale)” value [7, 15] was 80, the “Plant response rating, Crabgrass, Large” value [7, 16] was 100 and the “Plant response rating, Crabgrass, Large” value [7, 17] was 90. The “Plant response rating, Crabgrass, Large” value [7, 18] was 95, the “Plant response rating, Crabgrass, Large” value [7, 19] was 40 and the “Plant response rating, Crabgrass, Large” value [7, 20] was 65. For the same compound, the “Plant response rating, Crabgrass, Large” value [7, 21] was 98, the “Plant response rating, Velvetleaf” value [8, 14] was 90 and the “Velvetleaf plant response rating (0 to 100 scale)” value [8, 15] was 95. The “Plant response rating, Velvetleaf” value [8, 17] was 98, the “Plant response rating, Velvetleaf” value [8, 18] was 100 and the “Plant response rating, Velvetleaf” value [8, 19] was 75. The “Plant response rating, Velvetleaf” value [8, 20] was 85, the “Plant response rating, Velvetleaf” value [8, 21] was 90 and the “Plant response rating, Kochia” value [9, 14] was 75. The “Kochia plant response rating (0 to 100 scale)” value [9, 15] was 80, the “Plant response rating, Kochia” value [9, 16] was 85 and the “Plant response rating, Kochia” value [9, 17] was 85. For the same compound, the “Plant response rating, Kochia” value [9, 18] was 85, the “Plant response rating, Kochia” value [9, 19] was 70 and the “Plant response rating, Kochia” value [9, 20] was 70. The “Plant response rating, Kochia” value [9, 21] was 80, the “Plant response rating, Johnsongrass” value [10, 14] was 0 and the “Johnsongrass plant response rating (0 to 100 scale)” value [10, 15] was 0. The “Plant response rating, Johnsongrass” value [10, 16] was 0, the “Plant response rating, Johnsongrass” value [10, 17] was 5 and the “Plant response rating, Johnsongrass” value [10, 18] was 10. The “Plant response rating, Johnsongrass” value [10, 19] was 0, the “Plant response rating, Johnsongrass” value [10, 20] was 0 and the “Plant response rating, Johnsongrass” value [10, 21] was 0. For the same compound, the “Plant response rating, Bermudagrass” value [11, 14] was 35, the “Bermudagrass plant response rating (0 to 100 scale)” value [11, 22] was 70 and the “Plant response rating, Bermudagrass” value [11, 16] was 100. For the same compound, the “Plant response rating, Bermudagrass” value [11, 17] was 70, the “Plant response rating, Bermudagrass” value [11, 18] was 85 and the “Plant response rating, Bermudagrass” value [11, 19] was 45. For the same compound, the “Plant response rating, Bermudagrass” value [11, 20] was 90, the “Plant response rating, Bermudagrass” value [11, 21] was 95 and the “Plant response rating, Cupgrass, Woolly” value [12, 14] was 60. The “Cupgrass, Woolly plant response rating (0 to 100 scale)” value [12, 15] was 70, the “Plant response rating, Cupgrass, Woolly” value [12, 16] was 10 and the “Plant response rating, Cupgrass, Woolly” value [12, 17] was 70. For the same compound, the “Plant response rating, Cupgrass, Woolly” value [12, 18] was 75, the “Plant response rating, Cupgrass, Woolly” value [12, 19] was 0 and the “Plant response rating, Cupgrass, Woolly” value [12, 20] was 0. For the same compound, the “Plant response rating, Cupgrass, Woolly” value [12, 21] was 0, the “Plant response rating, Ragweed” value [13, 14] was 75 and the “Ragweed plant response rating (0 to 100 scale)” value [13, 15] was 80. For the same compound, the “Plant response rating, Ragweed” value [13, 17] was 85, the “Plant response rating, Ragweed” value [13, 18] was 90 and the “Plant response rating, Ragweed” value [13, 19] was 25. The “Plant response rating, Ragweed” value [13, 20] was 25 and the “Plant response rating, Ragweed” value [13, 21] was 35.

In the case of `O=C1CCCC(O)=C1C(=O)c1cnc(-c2cccs2)n(C2CCCCC2)c1=O` [Compound 189], the “Plant response rating, Goosegrass” value [1, 23] is reported as 60, the “Plant response rating, Goosegrass” value [1, 24] is reported as 90 and the “Plant response rating, Goosegrass” value [1, 25] is reported as 90. The “Plant response rating, Lambsquarters” value [2, 23] was 98, the “Plant response rating, Lambsquarters” value [2, 24] was 100 and the “Plant response rating, Lambsquarters” value [2, 25] was 100. The “Plant response rating, Soybean” value [3, 23] was 90, the “Plant response rating, Soybean” value [3, 24] was 98 and the “Plant response rating, Soybean” value [3, 25] was 100. The “Plant response rating, Nutsedge, Yellow” value [4, 23] was 20, the “Plant response rating, Nutsedge, Yellow” value [4, 24] was 55 and the “Plant response rating, Nutsedge, Yellow” value [4, 25] was 65. The “Plant response rating, Foxtail, Green” value [5, 23] was 65, the “Plant response rating, Foxtail, Green” value [5, 24] was 90 and the “Plant response rating, Foxtail, Green” value [5, 25] was 95. For the same compound, the “Plant response rating, Wheat” value [6, 23] was 0, the “Plant response rating, Wheat” value [6, 24] was 0 and the “Plant response rating, Wheat” value [6, 25] was 0. The “Plant response rating, Crabgrass, Large” value [7, 23] was 75, the “Plant response rating, Crabgrass, Large” value [7, 24] was 95 and the “Plant response rating, Crabgrass, Large” value [7, 25] was 100. For the same compound, the “Plant response rating, Velvetleaf” value [8, 23] was 85, the “Plant response rating, Velvetleaf” value [8, 24] was 100 and the “Plant response rating, Velvetleaf” value [8, 25] was 100. For the same compound, the “Plant response rating, Kochia” value [9, 23] was 85, the “Plant response rating, Kochia” value [9, 24] was 98 and the “Plant response rating, Kochia” value [9, 25] was 100. The “Plant response rating, Johnsongrass” value [10, 23] was 50, the “Plant response rating, Johnsongrass” value [10, 24] was 65 and the “Plant response rating, Johnsongrass” value [10, 25] was 70. The “Bermudagrass plant response rating (0 to 100 scale)” value [11, 22] was 15, the “Plant response rating, Bermudagrass” value [11, 23] was 10 and the “Plant response rating, Bermudagrass” value [11, 24] was 65. The “Plant response rating, Bermudagrass” value [11, 25] was 70, the “Plant response rating, Cupgrass, Woolly” value [12, 23] was 70 and the “Plant response rating, Cupgrass, Woolly” value [12, 24] was 75. For the same compound, the “Plant response rating, Cupgrass, Woolly” value [12, 25] was 80, the “Plant response rating, Ragweed” value [13, 23] was 10 and the “Plant response rating, Ragweed” value [13, 24] was 75. For the same compound, the “Plant response rating, Ragweed” value [13, 25] was 80.
